Reference: a melting point compilation (Tetko et al.; mined from patent text by program, amines drawn as free bases though some values may be those of a salt)

| SMILES | melting point |
| --- | --- |
| O=P1(c2ccccc2)c2ccccc2CN1Cc1ccccc1 (stereo not drawn) | 99 to 101 °C |
| CN(CCN1CCC(=C(c2ccc(F)cc2)c2ccc(F)cc2)CC1)c1nc(=O)cc[nH]1 | 164 to 165 °C |
| Nc1cc(C=O)ncc1F | 133 to 135 °C |
| CCCCCCCCCCCC(=O)Oc1ccc(-c2nc(-c3ccc(N(C)C)cc3)c(C)[nH]2)cc1OC | 110 to 112 °C |
| COCC1CCCN1CCC1CCN(c2nc(=O)c3c(C)c(OC)c(OC)cc3[nH]2)CC1 (stereo not drawn) | 83.1 to 111 °C |
| CCOC(=O)c1ccc2c(c1)OC(CCCBr)C(=O)N2 (stereo not drawn) | 118 to 119 °C |
| COC(=O)C(Cc1c[nH]c2ccccc12)NCOC(C)[Si](C)(C)C (racemic) | 113 to 115 °C |
| COc1cccc(CNC(=O)c2cc3c(=O)n(CC#N)c(=O)n(C)c3s2)c1 | 159 to 163 °C |
| Cc1ccc(Nc2ncccc2N)c(C)c1[N+](=O)[O-] | 173 to 175 °C |
| Cc1[nH]c(-c2ccccc2)c(N)c1C(=O)c1ccccc1 | 203 to 205 °C |
| COc1ccc(C(=O)N(C(=O)c2ccc(OC)cc2)c2nc3ccc([N+](=O)[O-])cc3c(NCc3ccccc3)c2C#N)cc1 | 145 to 148 °C |
| COc1ccc2c(C)cccc2c1C(F)(F)F | 70 to 71 °C |
| CCOC(=O)c1cnc2c(C)cc(-c3ccc(Cl)cc3)cn12 | 147 °C |
| O=CCCNC(=O)CN1CCN(CC(=O)O)CCN(CC(=O)O)CCN(CC(=O)O)CC1 | 115 to 120 °C |
| CCOC(=O)c1cn2c(C)nnc2cc1Nc1ccc(I)cc1F | 201 to 204 °C |
| COc1cccc(-c2cc3c4ccccc4ccn3n2)c1 | 109 to 111 °C |
| Cc1c(C)c2c(c(Br)c1NC(=O)CC(C)(C)C)C(c1ccc(C(C)C)cc1)CO2 (stereo not drawn) | 150 to 151 °C |
| Oc1ccccc1N1CCC(CNC[C@H]2COc3ccc(Cl)cc3O2)CC1 | 84 to 86 °C |
| Cc1ccc(-c2c(NS(=O)(=O)c3ccc(C(C)(C)COC4CCCCO4)cc3)ncnc2OCCOc2ncc(Br)cn2)cc1 (stereo not drawn) | 138 to 139 °C |
| Cc1ccc(S(=O)(=O)n2ccnc2C(O)(c2ccccc2)c2ccccc2Cl)cc1 (stereo not drawn) | 165 to 167 °C |
| CC(C)c1cc(OCC(=O)N(Cc2ccccc2)Cc2ccccc2)cc2c1C(=O)N(COC(=O)c1c(Cl)cccc1Cl)S2(=O)=O | 110 to 112 °C |
| COc1ccnc(C(=O)c2[nH]c3cc(Cl)ccc3c2NC(=O)N(C)OC)c1 | 184 to 185 °C |
| CC(C)Oc1nccc(-c2c(-c3ccc(F)cc3)ncn2C2CCC(O)CC2)n1 (stereo not drawn) | 208 to 211 °C |
| OCc1cccnc1Nc1cccc(C(F)(F)F)c1 | 102 °C |
| N#Cc1ccc(CN2C(=O)C3CCCC3N(C(=O)CN3C(=O)c4ccccc4C3=O)c3ccccc32)cc1 (stereo not drawn) | 222 to 224 °C |

| SMILES | melting point |
| --- | --- |
| CN1CCN(c2ccc(C(=O)O)cc2S(=O)(=O)Nc2ccccc2)CC1 | 252 to 253 °C |
| CN1CCC(c2c[nH]c3ccc(Sc4ccccn4)cc23)CC1 | 83 °C |
| CC(C)(C)C(NC(=O)c1ccc(-c2ccco2)cc1)NC(=NC#N)Nc1cccnc1 (stereo not drawn) | 181 to 182 °C |
| CN1C2CCC1CC(NC(=O)c1cc(Cl)cc3oc(-c4ccccc4)nc13)C2 (stereo not drawn) | 187 to 190 °C |
| O=P(Oc1ccccc1)(Oc1ccc(-c2cssc2=S)cc1)Oc1ccc(-c2cssc2=S)cc1 | 75 to 80 °C |
| O=C(O)Cn1c2c([nH]c(=O)c1=O)CCC1=C2C=C(n2ccc(CN3CCN(c4ccc([N+](=O)[O-])cc4)CC3)c2)CC1 | > 300 °C |
| O=c1cc(-c2ccc(OCc3ccccc3)cc2)oc2cc(OCc3ccccc3)cc(OCc3ccccc3)c12 | 60 to 62 °C |
| COc1cc(C2=NN(c3ccccc3)C(=O)C2)cc([N+](=O)[O-])c1OC | 190 to 192 °C |
| Nc1nnc(-c2cc(F)c(F)c(F)c2O)s1 | 309 °C |
| O=c1[nH]ccc2cc3cccnc3n12 | 265 to 266 °C |
| Cc1cccc(NCCNc2cccc(C)c2C)c1C | 130 to 133 °C |
| CC(C)=NOCc1nc2c(N)nc(C)c(C)c2n1CCCCNC(=O)C(C)C | 180 to 181 °C |
| O=C(c1cn(C(=O)c2ccc(Cl)cc2)c2ccccc12)C1CSC(c2cccnc2)N1 (stereo not drawn) | 80 to 84 °C |
| O=C1N(c2ccccc2)c2ccccc2C1(Cc1ccncc1)Cc1ccncc1 | 186 to 188 °C |
| CNc1ccc(-n2nc3c4ccccc4[nH]cc-3c2=O)cc1 | 302 to 304 °C |
| CON=C(OC)C(=O)c1ncsc1C | 65 °C |
| COc1ccc(CN(C)CCc2ccc(NC(=O)c3cccc(C(=O)c4ccccc4)c3)cc2)cc1OC | 130 °C |
| CON1C(C)(C)CC(OC(=O)N=NC(=O)OC2CC(C)(C)N(OC)C(C)(C)C2)CC1(C)C | 145 to 147 °C |
| CCOC(=O)C1=C(C(F)(F)F)COc2ccc3ccccc3c21 | 246 to 249 °C |
| COc1cc(C(=O)C=Cc2ccncc2)cc(OC)c1OC | 127 to 129 °C |
| CCCOc1ccc(S(=O)(=O)N2CCNCC2)cc1-c1cc2c(=O)n(C)c(=O)n(CCC)c2[nH]1 | 237 °C |
| CC(C)n1nc(-c2cnc(N)nc2-c2c(F)cccc2F)ccc1=O | 244 °C |
| CCOC(=O)c1cc2c(nc1C(=O)OCC)CCSC2 | 65 to 66 °C |
| Oc1ccccc1NCCCCCCBr | 124 to 126 °C |
| COC(=O)C1CCCN(COS(C)(=O)=O)c2c1cc(O)c1ccccc21 (stereo not drawn) | 113 to 115 °C |

| SMILES | melting point |
| --- | --- |
| CC(C(=O)O)c1ccc2c(c1)C(=O)C(C(C)C)C2 (stereo not drawn) | 130 to 132 °C |
| O=C(O)Cn1cccc(OCc2ccccc2)c1=O | 176 to 177 °C |
| Cc1cc(C)cc(NCc2ccc3nc(NC4CCN(CCO)CC4)n(Cc4nc(C)ccc4O)c3c2)c1 | 144 °C |
| ClCc1cn2cc(Cl)ccc2n1 | 123 to 124 °C |
| O=C(O)CCCc1cc2nc(Cl)ccc2n1S(=O)(=O)c1ccc(Cl)cc1Cl | 154 to 155 °C |
| Cn1nc(O)ccc1=S | 203 °C |
| O=C1CCc2c1cccc2-c1ccccc1 | 85 to 90 °C |
| COP(=O)(CN[C@@H](Cc1ccc(-c2ccccc2)cc1)C(=O)O)OC | 133 to 136 °C |
| COc1ccc(-c2cc3ccccc3n2C(C)=O)cc1 | 68 to 71 °C |
| CC(=O)NCCC1CCc2c(Cl)cc3nn(C)cc3c21 (stereo not drawn) | 143 to 144 °C |
| O=C(Nc1ccc(OCCCN2CCCC2=O)c2ccccc12)c1cc(F)cc(N2CCCCC2)c1 | 88 to 89 °C |
| O=C(SCCC(=O)N1c2ccccc2CCC1C(=O)O)c1ccccc1 (stereo not drawn) | 99 to 101 °C |
| COc1cccc(SSc2cccc(OC)c2S(N)(=O)=O)c1S(N)(=O)=O | 263 °C |
| COc1cc(-c2ccccc2)c(C=O)cc1CC(=O)O | 174 to 175 °C |
| O=C(O)c1ncsc1S | 156 to 157 °C |
| Cn1c2c(c3ccccc31)C(=O)C(=Cc1c[nH]cn1)CC2 | 225 to 232 °C |
| CC(=O)NC(CCCCCCCCCCCCO)(COC(C)=O)COC(C)=O | 75 to 76.5 °C |
| CCCC(=O)c1c(O)oc(=O)c(C(=O)CCC)c1O | 80 to 82 °C |
| Cn1c(Cl)c(C=O)c2ccc(Cl)cc21 | 166 to 168 °C |
| NC(=O)CCc1ccnc(-c2nc(=O)c3ccccc3s2)c1 | 237 to 240 °C |
| CCOC(=O)c1cn(-c2cnsn2)c2nc(Cl)c(F)cc2c1=O | 175 to 178 °C |
| O=C(O)CCCOc1cccc2c1Cc1sc(SCC(c3ccccc3)c3ccccc3)nc1-2 | 137 to 138 °C |
| Cc1cccc2cc3c(=O)n(CCCN4CCCC4=O)cc(C(=O)NCCN(C)C)c3nc12 | 170 to 171 °C |
| O=S(=O)(c1ccc(Cl)cc1)C(c1cccc(CCc2ccccn2)n1)c1cc(F)ccc1F (stereo not drawn) | 88 to 89 °C |
| COc1cc2c(c(OC)c1OC)-c1ccc(NC(=O)C(C)NC(=O)OCc3ccccc3)cc1C(NC(C)=O)CC2 (stereo not drawn) | 140 to 141 °C |

| SMILES | melting point |
| --- | --- |
| CCOC(=O)c1cn(-c2ncnn2C)c2nc(Cl)c(F)cc2c1=O | 256 to 263 °C |
| COc1ccc(S(=O)(=O)C2(C(=O)O)CCN(CCOc3ccccc3)CC2)cc1 | 235 °C |
| N#CC1(c2ccc(OCc3ccc(F)cc3)c(OC3CCCC3)c2)CCC(=NO)CC1 (stereo not drawn) | 55 to 57 °C |
| CC1(C)CN(c2ncc(C(=O)N(CC3CC3)c3cccc(C(F)(F)F)c3)c(N)n2)C(=O)N1 | 193 to 194 °C |
| COC(=O)c1sc2ccccc2c1CBr | 101 to 102 °C |
| CCc1nc2c(C)cc(C)nc2n1Cc1ccc(C(=C(Br)C(=O)O)c2ccccc2)cc1 | 125 to 129 °C |
| CCC(=Cc1ccccc1)C(=O)O | 104 to 105 °C |
| COc1cc(COc2cc(C=O)n(-c3ccccc3)n2)ccc1OCc1nc(-c2ccccc2)oc1C | 119 to 120 °C |
| COC(=O)CCCC#CCC1C(=O)CCCC1=O | 108 to 110 °C |
| COc1nc(N)c2c(OC)c(OC)cc(Cl)c2n1 | 203 to 204 °C |
| CS(=O)c1ncccc1C(=O)c1cnoc1C1CC1 (stereo not drawn) | 148 to 152 °C |
| COC(=O)c1cncc(OCc2cccc(OCc3nc(-c4ccccc4)oc3C)c2)c1 | 96 to 97 °C |
| Cc1cccc(C2=C(c3ccc(S(C)(=O)=O)cc3)CN(C3CC3)C2=O)c1 | 136 to 137 °C |
| CCc1nc2c(cnn2CC)c(NC2CCOCC2)c1CNC(=O)c1cccc(C(=O)NCc2ccc(F)c(-c3cccc(CN4CCNC(=O)C4)c3)c2)c1 | 147 to 150 °C |
| Cc1cc(-c2ccc(C(F)(F)F)cc2)cc(-c2cccc(-c3cccc(S(N)(=O)=O)c3)n2)n1 | 250 °C |
| CC(C)(C)NCC(O)c1ccc(N)c(C(F)(F)F)c1 (stereo not drawn) | 145 to 147 °C |
| CS(=O)(=O)NC1CCCOc2ccccc21 (stereo not drawn) | 105 to 106 °C |
| NC(=O)NN=Cc1c2ccccc2c(C=NNC(N)=O)c2ccccc12 | 300 °C |
| COc1ccc2ccc(=O)[nH]c2c1 | 190 °C |
| COC(=O)C(O)=CC(=O)c1cn(Cc2ccccc2)cc(Cc2ccccc2)c1=O | 148 to 150 °C |
| CCOC(=O)Oc1cc(C(C)(C)C)oc(=O)c1-c1c(C)cc(C)cc1C | 92 to 94 °C |
| O=C(O)C=C=Cc1ccc(C2CCCCC2)cc1 | 126 to 129 °C |
| CCCN1C(=O)CC(C)(C)c2cc(C)c(-c3cc(C=O)ccc3OC(F)(F)F)cc21 | 219 to 223 °C |
